In experiment [1] the test system is human breast cancer (MDA-MB-468). Put plainly: Example 11: FK330 with docetaxel in MDA-MB-468 tumor-bearing mice. In kind it is in vivo, nude mice. To be noted: FK330 100 mg/kg bid p.o. + docetaxel 15 mg/kg/day i.v. (Day 0 and Day 37). As for the experimental part: The dose of FK330 is expressed in terms of the weight of a simple substance (non-hydrate). Docetaxel (a docetaxel hydrate injectable preparation (Taxotere (trademark), for intravenous infusion)) was purchased from Sanofi-Aventis SA, and was used as docetaxel.
FK330 was suspended (20 mg/mL) in a 0.5% aqueous methyl cellulose solution (0.5% MC), and was orally administered. Docetaxel was prepared to a concentration of 20 mg/mL with 95% ethanol, and then diluted to 1.5 mg/mL with physiological saline for injection (Otsuka Pharmaceutical Group) immediately before administration and intravenously administered through the tail vein.
Human breast cancer-derived MDA-MB-468 (HTB-132) was obtained from American Type Culture Collection (VA, USA). […]
(§1) The body weight and the tumor diameter, determined by using a digital caliper, were measured twice a week. The tumor volume was calculated from the calculation formula for ellipsoid volume of (major axis×[minor axis]^2×0.5).
The results are expressed as the mean value (Mean)±standard error (SEM). […] Using the actual measured values of the tumor volume at each measurement time point, an unpaired statistical test (Student's t-test) of the difference between two groups was carried out between a single administration group and a combined use group. […]

The test system of experiment [2] is human breast cancer (MDA-MB-231). Put plainly: Example 6: FK330 with paclitaxel in MDA-MB-231 tumor-bearing mice. To be noted: FK330 100 mg/kg bid p.o. + paclitaxel 10 mg/kg/day i.v. (4 days each cycle), P<0.01. In kind it is in vivo, nude mice. As for the experimental part: The dose of FK330 is expressed in terms of the weight of a simple substance (non-hydrate). Paclitaxel was purchased from LC Laboratories, Inc. (Woburn, Mass., USA), and was used as paclitaxel.
FK330 was suspended (20 mg/mL) in a 0.5% aqueous methyl cellulose solution (0.5% MC), and was orally administered. Paclitaxel was prepared into a stock solution at 10 mg/mL with an ethanol/cremophor solution (mixed at 1:1), and then the stock solution was diluted to 1 mg/mL with physiological saline for injection (Otsuka Pharmaceutical Group) immediately before administration and was intravenously administered through the tail vein.
Human breast cancer-derived MDA-MB-231 (HTB-26) was obtained from American Type Culture Collection (VA, USA). […]
as §1
The results are expressed as the mean value (Mean)±standard error (SEM). […] Using the actual measured values of the tumor volume at each measurement time points, an unpaired statistical test (Student's t-test) of the difference between two groups was carried out between a single administration group and a combined use group. […]

For the molecule `O=C(/C=C/c1ccc(Cl)cc1)N[C@@H](Cc1ccccn1)C(=O)NCC(=O)N1CCC(Oc2cc(C(F)(F)F)ncn2)CC1` [FK330, N^2-[(2E)-3-(4-chlorophenyl)-2-propenoyl]-N-[2-oxo-2-(4-{[6-(trifluoromethyl)pyrimidin-4-yl]oxy}piperidin-1-yl)ethyl]-3-pyridin-2-yl-L-alaninamide], the “tumor volume reduction ratio compared with the docetaxel-only group” value in experiment [1] (Day 37, P<0.05) was found to be 46.6%; in experiment [1] (Day 65, P<0.01) it was 76.6%. Also, the “tumor volume reduction ratio compared with the paclitaxel-only group” value was 59.6% in experiment [2] (Day 28) and 82.8% in experiment [2] (Day 66).

The values are drawn from patent US20140066385A1, “METHOD FOR TREATING CANCER BY COMBINED USE OF DRUGS” (Astellas Pharma Inc., priority 2011, published 2014).
